The assay relates to HIV-IIIb. Briefly: Test A: Antiviral Assays in MT4 Cells. It is filed as cell-based. To be noted: MT-4 cells infected with HIV-IIIb (0.004 m.o.i.), 5 days of incubation, CellTiter-Glo chemiluminescence readout. As to the method:
Test A: Antiviral Assays in MT4 Cells For the antiviral assay utilizing MT-4 cells, 0.4 μL of 189X test concentration of 3-fold serially diluted compound in DMSO was added to 40 μL of cell growth medium (RPMI 1640, 10% FBS, 1% penicillin/Streptomycin, 1% L-Glutamine, 1% HEPES) in each well of 384-well assay plates (10 concentrations) in quadruplicate. 1 mL aliquots of 2×10e6 MT-4 cells are pre-infected for 1 and 3 hrs respectively, @ 37° C. with 25 μL (MT4) or of either cell growth medium (mock-infected) or a fresh 1:250 dilution of an HIV-IIIb concentrated ABI stock (0.004 m.o.i. for MT4 cells). Infected and uninfected cells are diluted in cell growth medium and 35 uL of 2000 (for MT4) cells is added to each well of the assay plates. Assay plates were then incubated in a 37° C. incubator. After 5 days of incubation, 25 μl of 2× concentrated CellTiter-Glo™ Reagent (catalog #G7573, Promega Biosciences, Inc., Madison, Wis.) was added to each well of the assay plate. Cell lysis was carried out by incubating at room temperature for 2-3 min and then chemiluminescence was read using the Envision reader (PerkinElmer).

Setting [1] is: Human immunodeficiency virus 1, IIIB, MT4, 120 h.

pEC50: −log10 of the molar value.

`Cc1cc2[nH]c(=O)ccc2c(-c2ccc(Cl)cc2)c1[C@H](OC(C)(C)C)C(=O)O` [Compound 8L, (S)-2-tert-butoxy-2-(5-(4-chlorophenyl)-7-methyl-2-oxo-1,2-dihydroquinolin-6-yl)acetic acid]: the negative logarithm of the EC50 (pEC50) under setting [1] was 6.25.

Consider `Cc1cc2c(ccc(=O)n2CCNC(=O)OCC2c3ccccc3-c3ccccc32)c(-c2ccc(Cl)cc2)c1[C@H](OC(C)(C)C)C(=O)O` [Compound 101, (S)-2-(1-(2-(((9H-Fluoren-9-yl)methoxy)carbonylamino)ethyl)-5-(4-chlorophenyl)-7-methyl-2-oxo-1,2-dihydroquinolin-6-yl)-2-tert-butoxyacetic acid], for which, under setting [1], the pEC50 was 6.44.

For the compound `Cc1cc2nc(-c3ccncc3)ccc2c(-c2ccc3c4c(ccnc24)CCO3)c1[C@H](OC(C)(C)C)C(=O)O` (atropisomer, axis not shown) [Compound 75, (S)-2-tert-Butoxy-2-((R)-5-(2,3-dihydropyrano[4,3,2-de]quinolin-7-yl)-7-methyl-2-(pyridin-4-yl)quinolin-6-yl)acetic acid], the pEC50 under setting [1] was 7.42.

Take `Cc1cc2cccnc2c(-c2ccc(Cl)cc2)c1[C@H](OC(C)(C)C)C(=O)O` [Compound 4J, (S)-2-tert-butoxy-2-(8-(4-chlorophenyl)-6-methylquinolin-7-yl)acetic acid]: under setting [1], the pEC50 is 6.27.

`Cc1cc2nc(C#CC3CC3)ccc2c(-c2ccc3c4c(ccnc24)CCO3)c1[C@H](OC(C)(C)C)C(=O)O` (atropisomer, axis not shown) [Compound 42, (S)-2-tert-butoxy-2-((R)-2-(cyclopropylethynyl)-5-(2,3-dihydropyrano[4,3,2-de]quinolin-7-yl)-7-methylquinolin-6-yl)acetic acid] had a pEC50 under setting [1] of 7.34.

For the compound `Cc1ccc2c(-c3ccc4c(c3Cl)NCCO4)c([C@H](OC(C)(C)C)C(=O)O)c(C)cc2n1` [Compound 89, (S)-2-tert-Butoxy-2-((R)-5-(5-chloro-3,4-dihydro-2H-benzo[b][1,4]oxazin-6-yl)-2,7-dimethylquinolin-6-yl)acetic acid], the pEC50 was 7.38.

Under setting [1], `Cc1cc2nc(OCc3ccccc3)ccc2c(-c2ccc(Cl)cc2)c1[C@H](OC(C)(C)C)C(=O)O` [Compound 65A, (S)-2-(2-(benzyloxy)-5-(4-chlorophenyl)-7-methylquinolin-6-yl)-2-tert-butoxyacetic acid] had a negative logarithm of the EC50 (pEC50) of 7.07.

Under setting [1], `Cc1cc2nc(-c3cncnc3)ccc2c(-c2ccc(Cl)cc2)c1[C@H](OC(C)(C)C)C(=O)O` [Compound 87, (S)-2-tert-Butoxy-2-(5-(4-chlorophenyl)-7-methyl-2-(pyrimidin-5-yl)quinolin-6-yl)acetic acid] gave a pEC50 of 6.76. This pEC50 is 0.31 log units lower than that of the compound before.

Compound `Cc1cc2nc(CN(C)c3ccccc3)ccc2c(-c2ccc(Cl)cc2)c1[C@H](OC(C)(C)C)C(=O)O` [Compound 14, (S)-2-tert-Butoxy-2-(5-(4-chlorophenyl)-7-methyl-2-((methyl(phenyl)amino)methyl)quinolin-6-yl)acetic acid] gave a pEC50 under setting [1] of 6.01. Compared with the last compound, the pEC50 is 0.75 log units lower.

Under setting [1], `Cc1cc2c(ccc(C)[n+]2[O-])c(-c2ccc3c4c(ccnc24)CCO3)c1[C@H](OC(C)(C)C)C(=O)O` [Compound 22, (R)-6-((S)-tert-butoxy(carboxy)methyl)-5-(2,3-dihydropyrano[4,3,2-de]quinolin-7-yl)-2,7-dimethylquinoline 1-oxide] gave a pEC50 of 5.97.

As for `Cc1cc2nc(CO)ccc2c(-c2ccc3c4c(ccnc24)CCO3)c1[C@H](OC(C)(C)C)C(=O)O` [Compound 21, (S)-2-tert-Butoxy-2-((R)-5-(2,3-dihydropyrano[4,3,2-de]quinolin-7-yl)-2-(hydroxymethyl)-7-methylquinolin-6-yl)acetic acid], under setting [1], the pEC50 is 6.64.

On to `Cc1cc2nc(C3CC3)ccc2c(-c2ccc(Cl)cc2)c1[C@H](OC(C)(C)C)C(=O)O` [Compound 28, (S)-2-tert-butoxy-2-(5-(4-chlorophenyl)-2-cyclopropyl-7-methylquinolin-6-yl)acetic acid], for which the pEC50 under setting [1] was 7.37.

In the case of `Cc1cc2nc(C3CC3)ccc2c(-c2ccc3c4c(ccnc24)CCO3)c1[C@H](OC(C)(C)C)C(=O)O` (atropisomer, axis not shown) [Compound 58, (S)-2-tert-Butoxy-2-((R)-2-cyclopropyl-5-(2,3-dihydropyrano[4,3,2-de]quinolin-7-yl)-7-methylquinolin-6-yl)acetic acid], under setting [1], the pEC50 was 7.85.

For `Cc1cc2nc(NC3CC3)ccc2c(-c2ccc(Cl)cc2)c1[C@H](OC(C)(C)C)C(=O)O` [Compound 30, (S)-2-tert-butoxy-2-(5-(4-chlorophenyl)-2-(cyclopropylamino)-7-methylquinolin-6-yl)acetic acid], the negative logarithm of the EC50 (pEC50) under setting [1] is 6.82.

Consider `Cc1cc2nc(CCC3CC3)ccc2c(-c2ccc(Cl)cc2)c1[C@H](OC(C)(C)C)C(=O)O` [Compound 39, (S)-2-tert-butoxy-2-(5-(4-chlorophenyl)-2-(2-cyclopropylethyl)-7-methylquinolin-6-yl)acetic acid], for which the pEC50 under setting [1] is 7.96.

Compound `Cc1cc2nc(C(C)C)ccc2c(-c2ccc(Cl)cc2)c1[C@H](OC(C)(C)C)C(=O)O` [Compound 90, (S)-2-tert-butoxy-2-(5-(4-chlorophenyl)-2-isopropyl-7-methylquinolin-6-yl)acetic acid] had a pEC50 under setting [1] of 7.17.

For `Cc1cc2nc(-c3ccc(Cl)cc3)ccc2c(-c2ccc(Cl)cc2)c1[C@H](OC(C)(C)C)C(=O)O` [Compound 27, (S)-2-(2,5-bis(4-chlorophenyl)-7-methylquinolin-6-yl)-2-tert-butoxyacetic acid], the pEC50 under setting [1] is 7.64.

`Cc1cc2nc(-c3cscn3)ccc2c(-c2ccc(Cl)cc2)c1[C@H](OC(C)(C)C)C(=O)O` [Compound 76, (S)-2-tert-butoxy-2-(5-(4-chlorophenyl)-7-methyl-2-(thiazol-4-yl)quinolin-6-yl)acetic acid] showed a pEC50 under setting [1] of 6.57.

Take `Cc1cc2nc(C(C)(C)C)ccc2c(-c2ccc3c4c(ccnc24)CCO3)c1[C@H](OC(C)(C)C)C(=O)O` [Compound 36, (S)-2-tert-butoxy-2-((R)-2-tert-butyl-5-(2,3-dihydropyrano[4,3,2-de]quinolin-7-yl)-7-methylquinolin-6-yl)acetic acid]: under setting [1], the pEC50 is 7.70.

In turn, `Cc1cc2nc(-c3cccnc3)ccc2c(-c2ccc3c4c(ccnc24)CCO3)c1[C@H](OC(C)(C)C)C(=O)O` (atropisomer, axis not shown) [Compound 81, (S)-2-tert-butoxy-2-((R)-5-(2,3-dihydropyrano[4,3,2-de]quinolin-7-yl)-7-methyl-2-(pyridin-3-yl)quinolin-6-yl)acetic acid] gave a pEC50 under setting [1] of 7.16.

Under setting [1], `Cc1cc2nc(NCCN3CCOCC3)ccc2c(-c2ccc(Cl)cc2)c1[C@H](OC(C)(C)C)C(=O)O` [Compound 34, (S)-2-tert-Butoxy-2-(5-(4-chlorophenyl)-7-methyl-2-(2-morpholinoethylamino)quinolin-6-yl)acetic acid] gave a negative-log EC50 (pEC50) of 6.58. Compared with the last compound, the pEC50 is 0.58 log units lower.

Under setting [1], `Cc1cc2nc(C3CCC3)ccc2c(-c2ccc3c4c(ccnc24)CCO3)c1[C@H](OC(C)(C)C)C(=O)O` (atropisomer, axis not shown) [Compound 47, (S)-2-tert-butoxy-2-((R)-2-cyclobutyl-5-(2,3-dihydropyrano[4,3,2-de]quinolin-7-yl)-7-methylquinolin-6-yl)acetic acid] showed a pEC50 of 7.85.

Regarding `Cc1cc2nc(-c3ccc(Cl)cc3)ccc2c(-c2ccc3c4c(ccnc24)CCO3)c1[C@H](OC(C)(C)C)C(=O)O` (atropisomer, axis not shown) [Compound 56, (S)-2-tert-Butoxy-2-((R)-2-(4-chlorophenyl)-5-(2,3-dihydropyrano[4,3,2-de]quinolin-7-yl)-7-methylquinolin-6-yl)acetic acid], the pEC50 under setting [1] is 7.40.

Under setting [1], `Cc1cc2nc(N(C)C)ccc2c(-c2ccc(Cl)cc2)c1[C@H](OC(C)(C)C)C(=O)O` [Compound 32, (S)-2-tert-Butoxy-2-(5-(4-chlorophenyl)-2-(dimethylamino)-7-methylquinolin-6-yl)acetic acid] gave a pEC50 of 6.97.

`CC#Cc1ccc2c(-c3ccc4c5c(ccnc35)CCO4)c([C@H](OC(C)(C)C)C(=O)O)c(C)cc2n1` (atropisomer, axis not shown) [Compound 44, (S)-2-tert-Butoxy-2-((R)-5-(2,3-dihydropyrano[4,3,2-de]quinolin-7-yl)-7-methyl-2-(prop-1-ynyl)quinolin-6-yl)acetic acid]: the pEC50 under setting [1] was 7.74.

Regarding `COC(=O)c1ccc2c(-c3ccc(Cl)cc3)c([C@H](OC(C)(C)C)C(=O)O)c(C)cc2n1` [Compound 12, (S)-2-tert-Butoxy-2-(5-(4-chlorophenyl)-2-(methoxycarbonyl)-7-methylquinolin-6-yl)acetic acid], the pEC50 under setting [1] is 6.68.

`Cc1ccc2c(-c3ccc4c5c(ccnc35)CCO4)c([C@H](OC(C)(C)C)C(=O)O)c(C)cc2n1` [Compound 6D, (S)-2-tert-butoxy-2-((R)-5-(2,3-dihydropyrano[4,3,2-de]quinolin-7-yl)-2,7-dimethylquinolin-6-yl)acetic acid] had a negative-log EC50 (pEC50) of 7.70.

Turning to `Cc1ccc2c(-c3ccc4c5c(ccnc35)CCO4)c([C@H](OC(C)(C)C)C(=O)O)c(C)cc2n1` [Compound 23, (S)-2-tert-Butoxy-2-((S)-5-(2,3-dihydropyrano[4,3,2-de]quinolin-7-yl)-2,7-dimethylquinolin-6-yl)acetic acid], the pEC50 was 4.58.

(Values after patent US9296758B2, “2-quinolinyl-acetic acid derivatives as HIV antiviral compounds” (GILEAD SCIENCES, INC., priority 2010, dated 2016).)
